# Experimental data published in ChEMBL document CHEMBL1141738, “Antihyperglycemic effects of N-containing sugars from Xanthocercis zambesiaca, Morus bombycis, Aglaonema treubii, and Castanospermum australe in streptozotocin-diabetic mice” (1998).
# Active and inactive are the calls of the source. The rule behind the calls is not given here.
# What was measured:
# Mus musculus [1] = organism: Mus musculus; assay: Antihyperglycemic effect on STZ-diabetic ddY mouse assessed as reduction in blood glucose level by glucose oxidase method; assay type: functional, organism-based
# Mus musculus [2] = assay: Antihyperglycemic effect in STZ-diabetic ddY mouse assessed as reduction in blood glucose level at 150 umol/kg, ip after 4 hrs by glucose oxidase method; assay type: functional, organism-based
# Mus musculus [3] = assay: Antihyperglycemic effect in STZ-diabetic ddY mouse assessed as reduction in blood glucose level at 150 umol/kg, ip after 4 to 6 hrs by glucose oxidase method; assay type: functional, organism-based
# Mus musculus [4] = assay: Antihyperglycemic effect in STZ-diabetic ddY mouse assessed as reduction in blood glucose level at 150 umol/kg, ip after 2 hrs by glucose oxidase method; assay type: functional, organism-based; conditions: TDE = time-dependent effect
# Mus musculus [5] = assay: Antihyperglycemic effect on STZ-diabetic ddY mouse assessed as increase in plasma insulin level at 300 umol/kg, ip after 2 hrs by ELISA; assay type: functional
# Pancreas [6] = assay: Potentiation of 8.3 mM glucose-induced immunoreactive insulin release in perfused Wistar rat pancreas by radioimmunoassay; assay type: functional, tissue-based
# Pancreas [7] = assay: Potentiation of 8.3 mM glucose-induced immunoreactive insulin release in perfused Wistar rat pancreas at 1 mM by radioimmunoassay; assay type: functional, tissue-based
# Mus musculus [8] = assay: Antihyperglycemic effect on STZ-diabetic ddY mouse assessed as increase in plasma insulin level at 300 umol/kg, ip after 30 mins by ELISA; assay type: functional
# Mus musculus [9] = assay: Antihyperglycemic effect in STZ-diabetic ddY mouse assessed as reduction in blood glucose level at 30 umol/kg, ip after 6 hrs by glucose oxidase method; assay type: functional
compound,measurement,setting,value
OC[C@H]1NCC[C@@H](O)[C@@H]1O[C@@H]1O[C@H](CO)[C@@H](O)[C@H](O)[C@H]1O,Activity,Mus musculus [1],Dose-dependent effect
OC[C@H]1N[C@H](CO)[C@@H](O)[C@@H]1O,Activity,Mus musculus [2],Active
O[C@H]1[C@H](O)[C@@H](O)CN2CC[C@H](O)[C@H]12,Activity,Mus musculus [3],Active
OC[C@H]1NCC[C@@H](O)[C@@H]1O [FAGOMINE],Activity,Mus musculus [4],tde
same,Activity,Mus musculus [5],560 pg/mL
same,Activity,Pancreas [6],Dose-dependent effect
same,Activity,Pancreas [7],Active
same,Activity,Mus musculus [8],454 pg/mL
COc1ccc(Cl)cc1C(=O)NCCc1ccc(S(=O)(=O)NC(=O)NC2CCCCC2)cc1 [GLYBURIDE],Activity,Mus musculus [9],138 mg/dL
